Source: PMC9910343 (ACS chemical neuroscience, 2022)
Where “and” joins values, the source holds several entries; their conditions need not be identical. Equal entries are not always repeated.

Key:
[1] = Plasma and CSF pharmacokinetics after s.c. or i.v. administration; format: in vivo, rhesus monkeys; settings: for Cmax of metabolite hydroxyvarenicline / AUC of metabolite hydroxyvarenicline: mean
[2] = rats; based on the unbound fraction; cited from earlier work
[3] = test system: neurons expressing PSAM-GlyRs; settings: systemic administration; rhesus monkeys; cited from earlier work
[4] = after uPSEM817 0.064 mg/kg i.v., CSF
[5] = after uPSEM817 0.064 mg/kg i.v., plasma
[6] = after uPSEM817 0.064 mg/kg s.c., plasma

## c1cnc2cc3c(cc2n1)[C@@H]1CNC[C@H]3C1 [varenicline]
[1]; after uPSEM817 0.064 mg/kg s.c. or i.v.
  detection of varenicline as metabolite in plasma or CSF: not detected
[2]
  CSF:plasma ratio: 1.25
[3]
  neuronal activity in neurons expressing PSAM-GlyRs: reduces neuronal activity

## O=c1cnc2cc3c(cc2[nH]1)C1CNCC3C1 (stereo not drawn) [hydroxyvarenicline]
[1]; [4]
  Tmax of metabolite hydroxyvarenicline: 1.5 h
  Cmax of metabolite hydroxyvarenicline: 0.05 ng/mL
[1]; [5]
  Tmax of metabolite hydroxyvarenicline: 3 h
  AUC of metabolite hydroxyvarenicline: 1.161 ng·h/mL
  Cmax of metabolite hydroxyvarenicline: 0.87 ng/mL and 0.874 ng/mL
[1]; [6]
  Tmax of metabolite hydroxyvarenicline: 1 h
  AUC of metabolite hydroxyvarenicline: 0.556 ng·h/mL
  Cmax of metabolite hydroxyvarenicline: 0.55 ng/mL and 0.553 ng/mL
[1]; after uPSEM817 0.064 mg/kg, CSF
  detection of hydroxyvarenicline as metabolite in CSF: only detected in a single CSF sample for one animal
